Measured values: patent US10647719B2, “Bicyclic compounds as dual ATX/CA inhibitors” (Hoffmann-La Roche Inc., priority 2015, dated 2020)
Like-named read-outs stand apart in the source and are kept apart here.

Legend:
human ATX = human ATX (Homo sapiens (Human), UniProt Q13822); experiment: Human ATX enzyme inhibition assay (fluorescence quenching, MR121 substrate); assay type: biochemical
Protocol: Human ATX Enzyme Inhibition Assay
ATX inhibition was measured by a fluorescence quenching assay using a specifically labeled substrate analogue (MR121 substrate). To obtain this MR121 substrate, BOC and TBS protected 6-amino-hexanoic acid (R)-3-({2-[3-(2-{2-[2-(2-amino-ethoxy)-ethoxy]-ethoxy}-ethoxy)-propionylamino]-ethoxy}-hydroxy-phosphoryloxy)-2-hydroxy-propyl ester (Ferguson et al., Org Lett 2006, 8 (10), 2023) was labeled with MR121 fluorophore (CAS 185308-24-1, 1-(3-carboxypropyl)-11-ethyl-1,2,3,4,8,9,10,11-octahydro-dipyrido[3,2-b:2′,3′-i]phenoxazin-13-ium) on the free amine of the ethanolamine side and then, after deprotection, subsequently with tryptophan on the side of the aminohexanoic acid.
(§1) Assay working solutions were made as follows:
Assay buffer (50 mM Tris-HCl, 140 mM NaCl, 5 mM KCl, 1 mM CaCl2, 1 mM MgCl2, 0.01% Triton-X-100, pH 8.0;
ATX solution: ATX (human His-tagged) stock solution (1.08 mg/mL in 20 mM bicine, pH 8.5, 0.15 M NaCl, 10% glycerol, 0.3% CHAPS, 0.02% NaN3), diluted to 1.4-2.5× final concentration in assay buffer;
MR121 substrate solution: MR121 substrate stock solution (800 μM MR121 substrate in DMSO), diluted to 2-5× final concentration in assay buffer.
Test compounds (10 mM stock in DMSO, 8 μL) were obtained in 384 well sample plates (Corning Costar #3655) and diluted with 8 μL DMSO. Row-wise serial dilutions were made by transferring 8 μL cpd solution to the next row up to row O. The compound and control solutions were mixed five times and 2 μL were transferred to 384 well assay plates (Corning Costar #3702). Then, 15 μL of 41.7 nM ATX solution was added (30 nM final concentration), mixed five times and then incubated for 15 minutes at 30° C. 10 μL of MR121 substrate solution was added (1 μM final concentration), mixed 30 times and then incubated for 15 minutes at 30° C.

[1] = biological target: Human carbonic anhydrase II (hCA-II) (Homo sapiens (Human), UniProt P00918); experiment: Human carbonic anhydrase-II inhibition assay (absorbance, 4-nitrophenyl acetate substrate); assay type: biochemical
Protocol: Human Carbonic Anhydrase-II Inhibition Assay
Human carbonic anhydrase II (hCA-II) inhibition was measured by an absorbance method using 4-nitrophenyl acetate (4-NPA) as its substrate. 4-NPA can be catalyzed by active hCA II via a zinc-hydroxide mechanism. The nitrophenolate in the products can be ionized to generate a bright yellow anion with high absorbance at 348 to 400 nm, as reported in the literature (Armstrong et al., J. Biol. Chem. 1966, 241, 5137-5149). OD340 nm was chosen for detecting hCA II substrate conversion.
as §1
Assay buffer: 50 mM MOPS, 33 mM Na2SO4, 1 mM EDTA, 0.5 mg/ml BSA, pH 7.5;
Enzyme solution: hCA-II (human, full length) stock solution (1.0 mg/mL in 20 mM HEPES, 50 mM NaCl, pH 7.4), diluted to 2133× final concentration in assay buffer;
4-NPA substrate solution: 4-NPA substrate stock solution (250 mM in DMSO, stored at −20° C.), diluted to 50× final concentration in deionized water.
Test compounds (10 mM stock in DMSO, 100 μL) were obtained in […] sample plates (Corning Costar #3655) and diluted to 0.5 mM. Column-wise serial dilutions were made by transferring 20 μL compound solutions to the next column, from column 3 up to 22. After this, 1.2 μL were transferred to 384 well assay plates (Corning Costar #3701). Then 30 μL of 16 nM hCA II solution was added (8 nM final concentration), mixed five times. 30 μL of 4-NPA substrate solution was added (2.5 mM final concentration), mixed five times. Absorbance at 340 nm was then measured immediately as time zero. The assay plates were incubated at room temperature for 1 hour and then measured as time 1 hour (Perkin Elmer EnVision 2103; Filter: Photometric 340; Light intensity 60%; Number of flashes: 10). IC50 values and Ki values were calculated from these readouts.

[2] = human His-tagged ATX 30 nM, MR121 substrate 1 μM, 30° C., read-out: ATX IC50
[3] = hCA II 8 nM, 4-NPA 2.5 mM, absorbance 340 nm, room temperature 1 hour, read-out: CA-II IC50

| SMILES | IC50 (human ATX; [2]) [nM] | IC50 [1, 3] [nM] | IC50 (human ATX) [nM] | IC50 [1] [nM] |
| --- | --- | --- | --- | --- |
| CC(C)(C)C(=O)Nc1cc(Cl)cnc1COC(=O)N1CC2=C(C1)CN(C(=O)c1ccc(S(N)(=O)=O)c(F)c1)C2 [Example 1.13, [5-chloro-3-(2,2-dimethylpropanoylamino)pyridin-2-yl]methyl 2-(3-fluoro-4-sulfamoylbenzoyl)-1,3,4,6-tetrahydropyrrolo[3,4-c]pyrrole-5-carboxylate] | 2 | 20.6 |  |  |
| CC(C)(C)C(=O)Nc1cc(Cl)cnc1COC(=O)N1CC2=C(C1)CN(C(=O)c1ccc(S(N)(=O)=O)c(F)c1F)C2 [Example 1.14, [5-chloro-3-(2,2-dimethylpropanoylamino)pyridin-2-yl]methyl 2-(2,3-difluoro-4-sulfamoylbenzoyl)-1,3,4,6-tetrahydropyrrolo[3,4-c]pyrrole-5-carboxylate] | 15 | 16.6 |  |  |
| CC(C)(C)C(=O)Nc1cc(Cl)cnc1COC(=O)N1CC2=C(C1)CN(C(=O)c1c(F)cc(S(N)(=O)=O)cc1F)C2 [Example 1.15, [5-chloro-3-(2,2-dimethylpropanoylamino)pyridin-2-yl]methyl 2-(2,6-difluoro-4-sulfamoylbenzoyl)-1,3,4,6-tetrahydropyrrolo[3,4-c]pyrrole-5-carboxylate] | 8 | 12.9 |  |  |
| CC(C)(C)C(=O)Nc1cc(Cl)cnc1COC(=O)N1CC2=C(C1)CN(C(=O)c1cc(F)c(S(N)(=O)=O)cc1F)C2 [Example 1.16, [5-chloro-3-(2,2-dimethylpropanoylamino)pyridin-2-yl]methyl 2-(2,5-difluoro-4-sulfamoylbenzoyl)-1,3,4,6-tetrahydropyrrolo[3,4-c]pyrrole-5-carboxylate] | 9 | 10.2 |  |  |
| Cc1ccc(NC(=O)C(C)(C)C)c(COC(=O)N2CC3=C(C2)CN(C(=O)c2ccc(S(N)(=O)=O)cc2F)C3)n1 [Example 1.17, [3-(2,2-dimethylpropanoylamino)-6-methylpyridin-2-yl]methyl 2-(2-fluoro-4-sulfamoylbenzoyl)-1,3,4,6-tetrahydropyrrolo[3,4-c]pyrrole-5-carboxylate] | 11 | 4 |  |  |
| CC(C)(C)C(=O)Nc1ccc(Cl)nc1COC(=O)N1CC2=C(C1)CN(C(=O)c1ccc(S(N)(=O)=O)cc1F)C2 [Example 1.18, [6-chloro-3-(2,2-dimethylpropanoylamino)pyridin-2-yl]methyl 2-(2-fluoro-4-sulfamoylbenzoyl)-1,3,4,6-tetrahydropyrrolo[3,4-c]pyrrole-5-carboxylate] | 2 | 1 |  |  |
| CC(C)(C)C(=O)Nc1cccnc1COC(=O)N1CC2=C(C1)CN(C(=O)c1ccc(S(N)(=O)=O)cc1F)C2 [Example 1.19, [3-(2,2-dimethylpropanoylamino)pyridin-2-yl]methyl 2-(2-fluoro-4-sulfamoylbenzoyl)-1,3,4,6-tetrahydropyrrolo[3,4-c]pyrrole-5-carboxylate] | 10 | 4 |  |  |
| CC(C)(C)C(=O)Nc1ccc(Cl)nc1COC(=O)N1CC2=C(C1)CN(C(=O)c1cc(F)c(S(N)(=O)=O)cc1F)C2 [Example 1.20, [6-chloro-3-(2,2-dimethylpropanoylamino)pyridin-2-yl]methyl 2-(2,5-difluoro-4-sulfamoylbenzoyl)-1,3,4,6-tetrahydropyrrolo[3,4-c]pyrrole-5-carboxylate] | 15 | 2 |  |  |
| CC(C)(C)C(=O)Nc1ccc(Cl)nc1COC(=O)N1CC2=C(C1)CN(C(=O)c1ccc(S(N)(=O)=O)c(F)c1)C2 [Example 1.21, [6-chloro-3-(2,2-dimethylpropanoylamino)pyridin-2-yl]methyl 2-(3-fluoro-4-sulfamoylbenzoyl)-1,3,4,6-tetrahydropyrrolo[3,4-c]pyrrole-5-carboxylate] | 12 | 3 |  |  |
| CC(C)(C)C(=O)Nc1ccc(Cl)nc1COC(=O)N1CC2=C(C1)CN(C(=O)c1ccc(S(N)(=O)=O)c(F)c1F)C2 [Example 1.22, [6-chloro-3-(2,2-dimethylpropanoylamino)pyridin-2-yl]methyl 2-(2,3-difluoro-4-sulfamoylbenzoyl)-1,3,4,6-tetrahydropyrrolo[3,4-c]pyrrole-5-carboxylate] | 6 | 2 |  |  |
| CC(C)(C)C(=O)Nc1ccc(Cl)nc1COC(=O)N1CC2=C(C1)CN(C(=O)c1c(F)cc(S(N)(=O)=O)cc1F)C2 [Example 1.23, [6-chloro-3-(2,2-dimethylpropanoylamino)pyridin-2-yl]methyl 2-(2,6-difluoro-4-sulfamoylbenzoyl)-1,3,4,6-tetrahydropyrrolo[3,4-c]pyrrole-5-carboxylate] | 10 | 1 |  |  |
| CC(C)(C)C(=O)Nc1cc(C#N)cnc1COC(=O)N1CC2=C(C1)CN(C(=O)c1cc(F)c(S(N)(=O)=O)cc1F)C2 [Example 1.27, [5-cyano-3-(2,2-dimethylpropanoylamino)pyridin-2-yl]methyl 2-(2,5-difluoro-4-sulfamoylbenzoyl)-1,3,4,6-tetrahydropyrrolo[3,4-c]pyrrole-5-carboxylate] | 8 | 18 |  |  |
| CC(C)(C)C(=O)Nc1cc(Cl)c(Cl)nc1COC(=O)N1CC2=C(C1)CN(C(=O)c1ccc(S(N)(=O)=O)cc1F)C2 [Example 1.29, [5,6-dichloro-3-(2,2-dimethylpropanoylamino)pyridin-2-yl]methyl 2-(2-fluoro-4-sulfamoylbenzoyl)-1,3,4,6-tetrahydropyrrolo[3,4-c]pyrrole-5-carboxylate] |  |  | 11 | 1.2 |
| CC(C)(C)C(=O)Nc1cc(Cl)c(Cl)nc1COC(=O)N1CC2=C(C1)CN(C(=O)c1ccc(S(N)(=O)=O)c(F)c1F)C2 [Example 1.30, [5,6-dichloro-3-(2,2-dimethylpropanoylamino)pyridin-2-yl]methyl 2-(2,3-difluoro-4-sulfamoylbenzoyl)-1,3,4,6-tetrahydropyrrolo[3,4-c]pyrrole-5-carboxylate] |  |  | 10 | 4.2 |
| CC(C)(C)C(=O)Nc1cc(Cl)c(Cl)nc1COC(=O)N1CC2=C(C1)CN(C(=O)c1c(F)cc(S(N)(=O)=O)cc1F)C2 [Example 1.31, [5,6-dichloro-3-(2,2-dimethylpropanoylamino)pyridin-2-yl]methyl 2-(2,6-difluoro-4-sulfamoylbenzoyl)-1,3,4,6-tetrahydropyrrolo[3,4-c]pyrrole-5-carboxylate] |  |  | 10 | 11.5 |
| CC(C)(C)C(=O)Nc1cc(C(F)(F)F)cnc1COC(=O)N1CC2=C(C1)CN(C(=O)c1ncc(S(N)(=O)=O)cc1F)C2 [Example 1.32, [3-(2,2-dimethylpropanoylamino)-5-(trifluoromethyl)pyridin-2-yl]methyl 2-(3-fluoro-5-sulfamoylpyridine-2-carbonyl)-1,3,4,6-tetrahydropyrrolo[3,4-c]pyrrole-5-carboxylate] |  |  | 5 | 2.5 |
| NS(=O)(=O)c1ccc(C(=O)N2CC3=C(CN(C(=O)c4cc(OCC5CCOCC5)nc(C5CC5)c4)C3)C2)c(F)c1F [Example 1.33, 4-[5-[2-cyclopropyl-6-(oxan-4-ylmethoxy)pyridine-4-carbonyl]-1,3,4,6-tetrahydropyrrolo[3,4-c]pyrrole-2-carbonyl]-2,3-difluorobenzenesulfonamide] |  |  | 1 | 2.3 |
